The text below walks through data of US11944616B2 (INSTITUT NATIONAL DE LA SANTE ET DE LA RECHERCHE MEDICAL …, priority 2016, dated 2024).

The subject of one series is NMDAR. Description: NMDAR blocking activity using patch-clamp (whole-cell voltage clamp recordings from rat hippocampal neurons). The format is cell-based. The following applies: currents evoked by 100 μM NMDA and 20 μM D-serine, clamped at −60 mV. On the technique in general: Patch clamp records ionic current or voltage across a cell membrane.
Series [1] can be described thus: In vivo brain penetration measurement (brain/plasma ratio Kp"brain") in rat. The following applies: for Kp at 3.45 h: brain (without cerebellum) and plasma, male Sprague-Dawley rat, 3.45 h constant-rate intravenous infusion, 4 mg/kg, mean of 3 rats ± standard deviation, read-out: Kp"brain" (total brain/plasma concentration ratio at steady state); for CNS / BBB penetration (in words): rat, conclusion from Kp"brain" values. As to the method: The femoral vein of male Sprague-Dawley rats (CRL) weighing around 250 g was surgically catheterized at least 72 hours prior to the experiment. 3 animals were performed for each compound tested. The drug was administered as 3.45 h constant-rate intravenous infusion to approach steady state, using a flow rate of 0.8 mL/h, corresponding to dosage of 4 mg/kg (1.067 mg/kg/h, i.e. 1 mg/rat of ˜250 g). The vehicle used was saline.
At the end of the infusion, the rats were anesthetized by inhalation of isoflurane, and blood was collected in a heparinized tube from the abdominal aorta, followed by immediate rinsing of the bloodstream for 2 minutes with saline at a rate of 15 mL/min using a peristaltic pump and left intraventricle cannula (flowing via right atrium). The brain (without cerebellum) was removed, and transferred in a tube and homogenized in two volumes of deionized water using a tissue homogenizer (Precellys24). All samples were stored at −20° C. until analysis. Plasma and brain homogenate sample preparation was performed using solid phase extraction on OASIS® WCX (Waters) and compounds were quantified by reversed phase liquid chromatography and positive electrospray ionization and multiple reaction monitoring mass spectrometry (LC-MS/MS).
This parameter is defined as the ratio of concentrations in brain and blood, Kp“brain” (Cbrain/Cplasma) or log(BB). Log(BB) is the logarithm of the ratio of the steady-state total concentration of a compound in the brain to that in the blood/plasma, log(BB)=log(Cbrain/Cplasma). This parameter depends upon the passive diffusion characteristics, the implication of membrane transporters at the BBB level and the relative drug binding affinity differences between the plasma proteins and brain tissue.

Like-named read-outs stand apart in the source and are kept apart here.

The melting point is the temperature, or range, at which the solid turns liquid. By IC50 is commonly meant the concentration that gives 50% inhibition. Regarding `CC[N@@+]1(CC2CC2)[C@H]2Cc3ccccc3[C@]1(C)c1ccccc12` [Compound No 31], the melting point was 189 to 191 °C. In addition, in the series with NMDAR (read-out: IC50), the IC50 was 270 nM.

In the case of `CC(C)(C)c1ccc(C[N@+]2(C)[C@H]3Cc4ccccc4[C@]2(C)c2ccccc23)cc1`, the melting point is 152 to 154 °C.

For the molecule `C[C@@]12c3ccccc3C[C@@H](c3ccccc31)[N@@+]2(C)CC1(c2ccc(Cl)cc2)CC1`, the melting point fell in the range of 162 to 164 °C.

In turn, `C[C@@]12c3ccccc3C[C@@H](c3ccccc31)[N@@+]2(C)Cc1ccc(Cl)cc1` had a melting point of 160 to 162 °C.

`CC[N@@+]1(CCO)[C@H]2Cc3ccccc3[C@]1(C)c1ccccc12` [Compound No 32] gave a melting point of 115 to 120 °C.

`C[C@@]12c3ccccc3C[C@@H](c3ccccc31)[N@@+]2(C)CC(N)=O` registered a melting point of 189 to 192 °C.

`C[C@@]12c3ccccc3C[C@@H](c3ccccc31)[N@@+]2(C)CC1CCCCC1` returned a melting point of 220 to 222 °C.

`CC[N@@+]1(CCO)[C@H]2Cc3ccccc3[C@]1(C)c1ccccc12` [Compound No 26] yielded a melting point of 202 to 205 °C. In series [1], the Kp at 3.45 h was 0.4 ± 0.08 and the “CNS / BBB penetration (in words)” value is “do not penetrate the CNS”. For the same molecule, the IC50 with NMDAR (read-out: IC50) worked out at 400 nM.

The molecule `C[C@]12c3ccccc3C[C@H](c3ccccc31)[N@@+]2(CCO)CC1CC1` came in with a melting point of 179 to 180 °C.

Turning to `CCCC[N@@+]1(CCO)[C@@H]2Cc3ccccc3[C@@]1(C)c1ccccc12`, the melting point lay in the range of 196 to 197 °C.

Regarding `CC(C)CC[N@+]1(C)[C@H]2Cc3ccccc3[C@]1(C)c1ccccc12`, the melting point fell in the range of 215 to 217 °C.

`CCC[N@@+]1(CCO)[C@@H]2Cc3ccccc3[C@@]1(C)c1ccccc12`: the melting point fell in the range of 221 to 222 °C.

The molecule `COCC[N@+]1(C)[C@@H]2Cc3ccccc3[C@@]1(C)c1ccccc12` came in with a melting point of 162 to 163 °C.

In turn, `CC[N@@+]1(CCCCO)[C@@H]2Cc3ccccc3[C@@]1(C)c1ccccc12` gave a melting point of 201 to 202 °C.

Turning to `C[C@@]12c3ccccc3C[C@@H](c3ccccc31)[N+]2(C)C` [Compound No 1], the melting point lay in the range of 270 to 280 °C. In series [1], the Kp at 3.45 h is 0.3 ± 0.03 and the “CNS / BBB penetration (in words)” value is “do not penetrate the CNS”. In addition, the IC50 in the series with NMDAR (read-out: IC50) stood at 650 nM.

With `C=CC[N@@+]1(CC2CC2)[C@@H]2Cc3ccccc3[C@@]1(C)c1ccccc12`, the melting point was 131 to 132 °C.

On to `CC(=O)NCC[N@+]1(C)[C@H]2Cc3ccccc3[C@]1(C)c1ccccc12`, for which the melting point is 216 to 218 °C.

Take `C#CC[N@@+]1(CCO)[C@@H]2Cc3ccccc3[C@@]1(C)c1ccccc12`: the melting point lay within 201 to 202 °C.

With `CCCC[N@@+]1(CC2CC2)[C@@H]2Cc3ccccc3[C@@]1(C)c1ccccc12`, the melting point was 171 to 172 °C.

Consider `C#CC[N@@+]1(CC2CC2)[C@@H]2Cc3ccccc3[C@@]1(C)c1ccccc12`, for which the melting point is 168 to 169 °C.

As for `CCC[N@+]1(C)[C@H]2Cc3ccccc3[C@]1(C)c1ccccc12`, the melting point lay within 214 to 217 °C.

`C[C@@]12c3ccccc3C[C@@H](c3ccccc31)[N@@+]2(C)Cc1cccc(C(F)(F)F)c1`: the melting point lay within 167 to 170 °C.

As for `C[C@@]12c3ccccc3C[C@@H](c3ccccc31)[N@@+]2(C)CCO`, the melting point lay within 216 to 219 °C.

Molecule `CC[N@+]1(C)[C@H]2Cc3ccccc3[C@]1(C)c1ccccc12` [Compound No 2] came in with a melting point of 230 to 232 °C. This molecule registered an IC50 in the series with NMDAR of 570 nM.

The molecule `CCCCCC[N@+]1(C)[C@H]2Cc3ccccc3[C@]1(C)c1ccccc12` registered a melting point of 200 to 203 °C.

As to `CC[N@@+]1(CCO)[C@H]2Cc3ccccc3[C@]1(C)c1ccccc12` (racemic) [Compound No 27], the melting point is 205 to 208 °C. Further, the IC50 with NMDAR (read-out: IC50) is 360 nM.

`Cc1ccc(C[N@+]2(C)[C@H]3Cc4ccccc4[C@]2(C)c2ccccc23)cc1` showed a melting point of 134 to 136 °C.

In turn, `C[C@@]12c3ccccc3C[C@@H](c3ccccc31)[N@@+]2(C)CC1(c2ccccc2)CC1` registered a melting point of 174 to 176 °C.

In turn, `COc1ccc(C[N@+]2(C)[C@H]3Cc4ccccc4[C@]2(C)c2ccccc23)cc1` yielded a melting point of 101 to 103 °C.

On to `C[C@@]12c3ccccc3C[C@@H](c3ccccc31)[N@@+]2(C)CC1CC1` [Compound No 5], for which the melting point lay in the range of 103 to 105 °C. This molecule also returned a 50% inhibitory concentration (IC50) with NMDAR of 400 nM.

For `C[C@@]12c3ccccc3C[C@@H](c3ccccc31)[N@@+]2(C)CC1CCCC1` [Compound No 6], the melting point lay in the range of 125 to 127 °C. Moreover, the IC50 in the series on NMDAR turned out to be 1100 nM.

Regarding `C[C@@]12c3ccccc3C[C@@H](c3ccccc31)[N@@+]2(C)CC#N`, the melting point is 147 to 149 °C.

As for `C[C@@]12c3ccccc3C[C@@H](c3ccccc31)[N@@+]2(C)Cc1ccccc1Cl`, the melting point lay within 129 to 131 °C.

With `CC[N+]1(CC)[C@H]2Cc3ccccc3[C@]1(C)c1ccccc12`, the melting point lay within 237 to 238 °C.

In turn, `C[C@@]12c3ccccc3C[C@@H](c3ccccc31)[N@@+]2(C)Cc1ccccc1` had a melting point of 220 to 222 °C.

`CC(C)C[N@+]1(C)[C@H]2Cc3ccccc3[C@]1(C)c1ccccc12` [Compound No 4]: the melting point lay within 216 to 217 °C. This molecule yielded an IC50 in the series with NMDAR of 820 nM.

`CCCC[N@+]1(C)[C@H]2Cc3ccccc3[C@]1(C)c1ccccc12` [Compound No 3] displayed a melting point of 200 to 203 °C. This molecule yielded an IC50 with NMDAR of 500 nM.

`Cc1ccccc1C[N@+]1(C)[C@H]2Cc3ccccc3[C@]1(C)c1ccccc12` returned a melting point of 101 to 103 °C.

The molecule `CCC(C)C[N@+]1(C)[C@H]2Cc3ccccc3[C@]1(C)c1ccccc12` (stereo partly shown) came in with a melting point of 181 to 184 °C.

`C=CC[N@@+]1(CCO)[C@@H]2Cc3ccccc3[C@@]1(C)c1ccccc12` displayed a melting point of 196 to 197 °C.

In turn, `CCC[N@@+]1(CC2CC2)[C@@H]2Cc3ccccc3[C@@]1(C)c1ccccc12` returned a melting point of 203 to 204 °C.

`CC[N@@+]1(CC2CC2)[C@@H]2Cc3ccccc3[C@@]1(C)c1ccccc12` gave a melting point of 180 to 181 °C.

`CC[N+]1(CC)[C@@H]2Cc3ccccc3[C@@]1(C)c1ccccc12` returned a melting point of 218 to 219 °C.

`C[C@@]12c3ccccc3C[C@@H](c3ccccc31)[N@@+]2(C)CC1CCC1` had a melting point of 159 to 162 °C.

With `C[C@@]12c3ccccc3C[C@@H](c3ccccc31)[N@@+]2(C)Cc1ccc(F)cc1`, the melting point fell in the range of 92 to 94 °C.
